In this experiment the target is T1, recombinant human baculovirus-expressed GST-tagged FASN (Homo sapiens, UniProt P49327).
T1 construct: GST; host or cells: baculovirus expression system (insect cells implied)
The experiment is described as follows: FASN enzyme activity assay: fluorescence-based detection of CoA with CPM. It is filed as biochemical. The settings on record: 5 nM FASN, 150 μM NADPH, 10 μM acetyl-CoA, 25 μM malonyl-CoA, 90 minutes incubation. Summed up: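 GST-tagged human FASN (5 nM, baculovirus-expressed) in 50 mM HEPES pH 7.5 with 150 μM NADPH, 10 μM acetyl-CoA and 25 μM malonyl-CoA, 0.5% DMSO, started with malonyl-CoA and run 90 min. CoA was detected with CPM (30 min; ex 390/em 530 nm). IC50 came from sigmoidal variable-slope fits of % inhibition.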

T1 sequence (P49327 whole entry): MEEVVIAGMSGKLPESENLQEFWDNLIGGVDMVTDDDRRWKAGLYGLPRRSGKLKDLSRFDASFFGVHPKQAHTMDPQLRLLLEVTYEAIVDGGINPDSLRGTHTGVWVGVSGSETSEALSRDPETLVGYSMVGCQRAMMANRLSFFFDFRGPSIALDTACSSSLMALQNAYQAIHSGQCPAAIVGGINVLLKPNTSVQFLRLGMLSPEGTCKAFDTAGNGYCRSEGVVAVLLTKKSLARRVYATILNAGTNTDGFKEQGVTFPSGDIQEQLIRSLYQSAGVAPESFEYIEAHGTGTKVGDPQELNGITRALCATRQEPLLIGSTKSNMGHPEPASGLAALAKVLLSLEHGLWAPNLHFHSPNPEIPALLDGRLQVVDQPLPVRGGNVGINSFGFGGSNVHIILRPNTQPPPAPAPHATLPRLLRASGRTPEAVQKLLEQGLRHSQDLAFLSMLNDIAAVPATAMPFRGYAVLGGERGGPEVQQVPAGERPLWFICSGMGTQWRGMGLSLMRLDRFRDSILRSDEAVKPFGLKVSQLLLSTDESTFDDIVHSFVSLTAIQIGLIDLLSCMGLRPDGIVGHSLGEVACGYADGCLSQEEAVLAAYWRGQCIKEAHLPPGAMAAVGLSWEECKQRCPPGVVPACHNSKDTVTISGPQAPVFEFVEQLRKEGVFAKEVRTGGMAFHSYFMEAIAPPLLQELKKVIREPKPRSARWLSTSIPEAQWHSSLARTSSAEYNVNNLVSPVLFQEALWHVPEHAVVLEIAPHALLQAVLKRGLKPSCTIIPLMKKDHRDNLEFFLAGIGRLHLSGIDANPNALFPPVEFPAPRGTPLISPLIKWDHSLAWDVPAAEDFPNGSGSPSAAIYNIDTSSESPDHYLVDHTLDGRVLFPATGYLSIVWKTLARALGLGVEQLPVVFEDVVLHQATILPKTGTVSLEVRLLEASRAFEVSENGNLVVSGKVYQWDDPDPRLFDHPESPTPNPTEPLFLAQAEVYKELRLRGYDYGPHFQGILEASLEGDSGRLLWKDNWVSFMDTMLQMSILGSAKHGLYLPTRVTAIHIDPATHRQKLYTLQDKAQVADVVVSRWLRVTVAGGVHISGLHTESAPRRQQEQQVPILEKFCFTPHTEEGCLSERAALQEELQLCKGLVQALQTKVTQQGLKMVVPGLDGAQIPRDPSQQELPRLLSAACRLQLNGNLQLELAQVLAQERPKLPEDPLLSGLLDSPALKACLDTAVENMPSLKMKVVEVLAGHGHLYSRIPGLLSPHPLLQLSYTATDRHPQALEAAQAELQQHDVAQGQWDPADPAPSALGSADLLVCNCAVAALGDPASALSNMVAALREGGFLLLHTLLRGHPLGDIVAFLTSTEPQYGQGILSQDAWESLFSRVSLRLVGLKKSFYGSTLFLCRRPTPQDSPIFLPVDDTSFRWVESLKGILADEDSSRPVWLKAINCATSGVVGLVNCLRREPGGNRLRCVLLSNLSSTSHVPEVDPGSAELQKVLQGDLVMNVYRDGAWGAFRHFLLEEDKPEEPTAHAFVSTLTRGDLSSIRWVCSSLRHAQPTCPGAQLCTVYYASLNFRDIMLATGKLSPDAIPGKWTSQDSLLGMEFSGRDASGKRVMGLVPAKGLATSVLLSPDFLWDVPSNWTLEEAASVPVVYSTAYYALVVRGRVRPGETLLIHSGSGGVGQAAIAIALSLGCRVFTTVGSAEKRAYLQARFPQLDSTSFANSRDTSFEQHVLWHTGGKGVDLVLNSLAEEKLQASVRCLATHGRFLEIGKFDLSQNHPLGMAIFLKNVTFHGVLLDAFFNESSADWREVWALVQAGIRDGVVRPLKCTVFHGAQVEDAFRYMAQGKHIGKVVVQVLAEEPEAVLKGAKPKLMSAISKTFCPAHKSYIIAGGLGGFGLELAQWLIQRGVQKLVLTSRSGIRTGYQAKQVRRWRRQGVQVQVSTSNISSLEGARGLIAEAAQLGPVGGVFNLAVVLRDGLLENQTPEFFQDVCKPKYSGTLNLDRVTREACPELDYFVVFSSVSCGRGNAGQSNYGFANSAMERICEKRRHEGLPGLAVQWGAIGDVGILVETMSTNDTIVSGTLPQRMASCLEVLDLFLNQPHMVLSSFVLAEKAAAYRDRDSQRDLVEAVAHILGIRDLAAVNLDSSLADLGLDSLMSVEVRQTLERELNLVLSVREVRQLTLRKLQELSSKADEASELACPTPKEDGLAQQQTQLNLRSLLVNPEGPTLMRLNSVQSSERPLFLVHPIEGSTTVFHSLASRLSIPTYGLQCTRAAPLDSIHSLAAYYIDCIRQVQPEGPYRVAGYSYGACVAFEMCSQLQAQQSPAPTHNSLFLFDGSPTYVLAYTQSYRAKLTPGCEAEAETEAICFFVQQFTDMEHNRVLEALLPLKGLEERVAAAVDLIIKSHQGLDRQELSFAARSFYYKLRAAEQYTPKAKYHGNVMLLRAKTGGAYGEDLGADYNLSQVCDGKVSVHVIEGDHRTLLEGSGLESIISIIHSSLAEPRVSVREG

On to `O=C(C1CC1)N1CCC(F)(Cc2ccc(-c3cnc4ccccc4c3)cc2)CC1` [Example 171, Cyclopropyl(4-fluoro-4-(4-(quinolin-3-yl)benzyl)piperidin-1-yl)methanone], for which the IC50 was 0.001 to 0.099 µM.

Regarding `O=C(C1CC1)N1CC=C(Cc2ccc(-c3cnc4ccccc4c3)cc2)CC1` [Example 172, Cyclopropyl(4-(4-(quinolin-3-yl)benzyl)-5,6-dihydropyridin-1(2H)-yl)methanone], the IC50 lay within 0.1 to 0.999 µM.

For the molecule `O=C(C1CC1)N1CCC(F)(Cc2ccc(-c3ccc4cccnc4c3)cc2)CC1` [Example 173, Cyclopropyl(4-fluoro-4-(4-(quinolin-7-yl)benzyl)piperidin-1-yl)methanone], the IC50 lay in the range of 0.1 to 0.999 µM.

Regarding `O=C(C1CC1)N1CC=C(Cc2ccc(-c3ccc4cccnc4c3)cc2)CC1` [Example 174], the IC50 lay within 0.1 to 0.999 µM. As for `O=C(C1CC1)N1CCC(F)(Cc2ccc(-c3ccc4cnccc4c3)cc2)CC1` [Example 175, Cyclopropyl(4-fluoro-4-(4-(isoquinolin-6-yl)benzyl)piperidin-1-yl)methanone], the IC50 lay within 0.001 to 0.099 µM.

Consider `O=C(C1CC1)N1CC=C(Cc2ccc(-c3ccc4cnccc4c3)cc2)CC1` [Example 176, Cyclopropyl(4-(4-(isoquinolin-6-yl)benzyl)-5,6-dihydropyridin-1(2H)-yl)methanone], for which the IC50 was in the range of 0.1 to 0.999 µM. For the molecule `O=C(C1CC1)N1CCC(F)(Cc2ccc(-c3cncc4ccccc34)cc2)CC1` [Example 177, Cyclopropyl(4-fluoro-4-(4-(isoquinolin-4-yl)benzyl)piperidin-1-yl)methanone], the IC50 lay within 0.001 to 0.099 µM. Take `O=C(C1CC1)N1CC=C(Cc2ccc(-c3cncc4ccccc34)cc2)CC1` [Example 178, Cyclopropyl(4-(4-(isoquinolin-4-yl)benzyl)-5,6-dihydropyridin-1(2H)-yl)methanone]: the IC50 lay in the range of 0.1 to 0.999 µM.

In the case of `O=C(C1CC1)N1CCC(F)(Cc2ccc(-c3ccc4occc4c3)cc2)CC1` [Example 179, (4-(4-(benzofuran-5-yl)benzyl)-4-fluoropiperidin-1-yl)(cyclopropyl)methanone], the IC50 lay in the range of 0.1 to 0.999 µM. To `O=C(C1CC1)N1CC=C(Cc2ccc(-c3ccc4occc4c3)cc2)CC1` [Example 180, (4-(4-(benzofuran-5-yl)benzyl)-5,6-dihydropyridin-1(2H)-yl)(cyclopropyl)methanone] belongs 1 to 10 µM. On to `Cc1c(-c2ccc(CC3(F)CCN(C(=O)[C@H]4CCCO4)CC3)cc2)cnc2ccccc12` [Example 181, (R)-(4-fluoro-4-(4-(4-methylquinolin-3-yl)benzyl)piperidin-1-yl)(tetrahydrofuran-2-yl)methanone], for which the IC50 lay in the range of 0.001 to 0.099 µM. To `Cc1c(-c2ccc(CC3=CCN(C(=O)[C@H]4CCCO4)CC3)cc2)cnc2ccccc12` [Example 182, (R)-(4-(4-(4-methylquinolin-3-yl)benzyl)-5,6-dihydropyridin-1(2H)-yl)(tetrahydrofuran-2-yl)methanone] belongs 0.001 to 0.099 µM; to `Cc1c(-c2ccc(CC3(F)CCN(C(=O)C4CC4)CC3)cc2)ccc2cccnc12` [Example 183, Cyclopropyl(4-fluoro-4-(4-(8-methylquinolin-7-yl)benzyl)piperidin-1-yl)methanone], 0.001 to 0.099 µM. To `Cc1c(-c2ccc(CC3=CCN(C(=O)C4CC4)CC3)cc2)ccc2cccnc12` [Example 184, Cyclopropyl(4-(4-(8-methylquinolin-7-yl)benzyl)-3,6-dihydropyridin-1(2H)-yl)methanone] belongs 0.1 to 0.999 µM; to `CCC(=O)N1CCC(F)(Cc2ccc(-c3ccc4cccnc4c3C)cc2)CC1` [Example 185, 1-(4-fluoro-4-(4-(8-methylquinolin-7-yl)benzyl)piperidin-1-yl)propan-1-one], 0.001 to 0.099 µM.

As to `CCC(=O)N1CC=C(Cc2ccc(-c3ccc4cccnc4c3C)cc2)CC1` [Example 186, 1-(4-(4-(8-methylquinolin-7-yl)benzyl)-3,6-dihydropyridin-1(2H)-yl)propan-1-one], the IC50 lay in the range of 0.001 to 0.099 µM. Take `O=C([C@H]1CCCO1)N1CCC(F)(Cc2ccc(-c3ccc4cccnc4c3)cc2)CC1` [Example 187, (R)-(4-fluoro-4-(4-(quinolin-7-yl)benzyl)piperidin-1-yl)(tetrahydrofuran-2-yl)methanone]: the IC50 fell in the range of 0.001 to 0.099 µM.

`Cc1c(-c2ccc(CC3(F)CCN(C(=O)C4CC4)CC3)cc2)cnc2ccccc12` [Example 191, Cyclopropyl(4-fluoro-4-(4-(4-methylquinolin-3-yl)benzyl)piperidin-1-yl)methanone]: the IC50 was in the range of 0.001 to 0.099 µM. As for `Cc1c(-c2ccc(CC3=CCN(C(=O)C4CC4)CC3)cc2)cnc2ccccc12` [Example 192, Cyclopropyl(4-(4-(4-methylquinolin-3-yl)benzyl)-5,6-dihydropyridin-1(2H)-yl)methanone], the IC50 is 0.1 to 0.999 µM. To `CCC(=O)N1CCC(F)(Cc2ccc(-c3cnc4ccccc4c3Cl)cc2)CC1` [Example 193, 1-(4-(4-(4-chloroquinolin-3-yl)benzyl)-4-fluoropiperidin-1-yl)propan-1-one] belongs 0.001 to 0.099 µM. To `CCC(=O)N1CC=C(Cc2ccc(-c3cnc4ccccc4c3Cl)cc2)CC1` [Example 194, 1-(4-(4-(4-Chloroquinolin-3-yl)benzyl)-3,6-dihydropyridin-1(2H)-yl)propan-1-one] belongs 0.1 to 0.999 µM. To `CCC(=O)N1CCC(F)(Cc2ccc(-c3cnc4ccccc4c3C)cc2)CC1` [Example 195, 1-(4-Fluoro-4-(4-(4-methylquinolin-3-yl)benzyl)piperidin-1-yl)propan-1-one] belongs 0.001 to 0.099 µM; to `CCC(=O)N1CC=C(Cc2ccc(-c3cnc4ccccc4c3C)cc2)CC1` [Example 196, 1-(4-(4-(4-Methylquinolin-3-yl)benzyl)-5,6-dihydropyridin-1(2H)-yl)propan-1-one], 0.001 to 0.099 µM; to `O=C(C1CC1)N1CCC(F)(Cc2ccc(-c3cnc4ccccc4c3Cl)cc2)CC1` [Example 197, (4-(4-(4-Chloroquinolin-3-yl)benzyl)-4-fluoropiperidin-1-yl)(cyclopropyl)-methanone], 0.001 to 0.099 µM. In the case of `O=C(C1CC1)N1CC=C(Cc2ccc(-c3cnc4ccccc4c3Cl)cc2)CC1` [Example 198, (4-(4-(4-Chloroquinolin-3-yl)benzyl)-3,6-dihydropyridin-1(2H)-yl)(cyclopropyl)methanone], the IC50 was 0.1 to 0.999 µM. The result for `Cc1c(-c2ccc(CC3(F)CCN(C(=O)[C@H]4CCCO4)CC3)cc2)ccc2cccnc12` [Example 199, (R)-(4-fluoro-4-(4-(8-methylquinolin-7-yl)benzyl)piperidin-1-yl)(tetrahydrofuran-2-yl)methanone] reads 0.001 to 0.099 µM; that for `Cc1c(-c2ccc(CC3=CCN(C(=O)[C@H]4CCCO4)CC3)cc2)ccc2cccnc12` [Example 200, (R)-(4-(4-(8-methylquinolin-7-yl)benzyl)-3,6-dihydropyridin-1(2H)-yl)(tetrahydrofuran-2-yl)methanone], 0.001 to 0.099 µM; that for `O=C([C@H]1CCCO1)N1CCC(F)(Cc2ccc(-c3cnc4ccccc4c3Cl)cc2)CC1` [Example 201, (R)-(4-(4-(4-chloroquinolin-3-yl)benzyl)-4-fluoropiperidin-1-yl)(tetrahydrofuran-2-yl)methanone], 0.001 to 0.099 µM. Regarding `O=C([C@H]1CCCO1)N1CC=C(Cc2ccc(-c3cnc4ccccc4c3Cl)cc2)CC1` [Example 202, (R)-(4-(4-(4-chloroquinolin-3-yl)benzyl)-3,6-dihydropyridin-1(2H)-yl)(tetrahydrofuran-2-yl)methanone], the IC50 is 0.001 to 0.099 µM.

In the case of `CC(C)(c1ccc(-c2cnc3ccccc3c2)cc1)C1CCN(C(=O)[C@H]2CCCO2)CC1` [Example 203], the IC50 is 0.001 to 0.099 µM. To `CC(C)(c1ccc(-c2cnc3ccccc3c2)cc1)C1CCN(C(=O)C2CC2)CC1` [Example 204, Cyclopropyl(4-(2-(4-(quinolin-3-yl)phenyl)propan-2-yl)piperidin-1-yl)methanone] belongs 0.1 to 0.999 µM. To `CCC(=O)N1CCC(C(C)(C)c2ccc(-c3cnc4ccccc4c3)cc2)CC1` [Example 205, 1-(4-(2-(4-(quinolin-3-yl)phenyl)propan-2-yl)piperidin-1-yl)propan-1-one] belongs 0.1 to 0.999 µM; to `CCOC(C)(c1ccc(-c2cnc3ccccc3c2)cc1)C1CCN(C(=O)CC)CC1` (centres unmarked) [Example 206, 1-{4-[1-Ethoxy-1-(4-quinolin-3-yl-phenyl)-ethyl]-piperidin-1-yl}-propan-1-one], 0.1 to 0.999 µM. The result for `CCOC(C)(c1ccc(-c2cnc3ccccc3c2)cc1)C1CCN(C(=O)C2CC2)CC1` (centres unmarked) [Example 207, Cyclopropyl-{4-[1-ethoxy-1-(4-quinolin-3-yl-phenyl)-ethyl]-piperidin-1-yl}-methanone] reads 0.1 to 0.999 µM; that for `CCC(=O)N1CCC(C(C)(OC)c2ccc(-c3cnc4ccccc4c3)cc2)CC1` (centres unmarked) [Example 208, 1-{4-[1-Methoxy-1-(4-quinolin-3-yl-phenyl)-ethyl]-piperidin-1-yl}-propan-1-one], 0.1 to 0.999 µM; that for `COC(C)(c1ccc(-c2cnc3ccccc3c2)cc1)C1CCN(C(=O)C2CC2)CC1` (centres unmarked) [Example 209, Cyclopropyl-{4-[1-methoxy-1-(4-quinolin-3-yl-phenyl)-ethyl]-piperidin-1-yl}-methanone], 0.001 to 0.099 µM. On to `CCC(=O)N1CCC(C(CC)(OC)c2ccc(-c3cnc4ccccc4c3)cc2)CC1` (centres unmarked) [Example 210, 1-{4-[1-Methoxy-1-(4-quinolin-3-yl-phenyl)-propyl]-piperidin-1-yl}-propan-1-one], for which the 50% inhibitory concentration (IC50) was 1 to 10 µM.

For the molecule `CCC(OC)(c1ccc(-c2cnc3ccccc3c2)cc1)C1CCN(C(=O)C2CC2)CC1` (centres unmarked) [Example 211, Cyclopropyl-{4-[1-methoxy-1-(4-quinolin-3-yl-phenyl)-propyl]-piperidin-1-yl}-methanone], the IC50 lay in the range of 1 to 10 µM.

What is called IC50 is the midpoint of a concentration-inhibition curve.
